Reference: PubChem BioAssay (NCI)
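Five concentrations, 48 hours, 96-well plates. Abbreviation: GI50, concentration required for 50% inhibition of growth. TGI marks complete inhibition of growth.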

Assays:
Test in all cases: NCI-60 cell line screen, 48 h
[1] = tested on: LOX IMVI melanoma
[2] = tested on: OVCAR-5 ovarian
[3] = tested on: HOP-62 NSCLC
[4] = tested on: SK-MEL-28 melanoma
[5] = tested on: SN12C renal

Structure (SMILES) | TGI [1] [µM] | TGI [2] [µM] | TGI [3] [µM] | TGI [4] [µM] | TGI [5] [µM] | GI50 [3] [µM] | GI50 [5] [µM]
CC1=Nc2nc3ccccc3n2C(C)(C)C1 | > 100 | > 100 | > 100 |  |  |  | 
COC(=O)C1=C(C(=O)OC)SC(=C2c3ccsc3-c3sccc32)S1 | > 100 | > 100 | 55.1 | > 100 | > 100 |  | 
Cc1cc(=O)oc2c(CNC(C)C(=O)O)c(O)ccc12 (stereo not drawn) | > 100 | > 100 | > 100 | > 100 | > 100 |  | 
COC(=O)c1cc(C)n2c1CS[C@@H]2c1ccccc1 | > 100 | > 100 | > 100 | > 100 | > 100 |  | 
CC(=O)c1ccc(N2CCN(c3c(O)c4c(c(O)c3Cl)C(=O)C=CC4=O)CC2)cc1 |  | 33 | 21 | 16.8 |  |  | 
CCOC(=O)C1=C(OS(=O)(=O)C(F)(F)F)CCCC1 | > 100 | > 100 | > 100 | > 100 |  |  | 
CCCCCCNC(=O)c1cc(C#Cc2cc(OC)ccc2OC)ccc1OC | > 100 | > 100 | > 100 | > 100 | > 100 | 11.8 | > 100
OC(c1ccsc1)c1cc2ccccc2s1 (stereo not drawn) | > 10 | > 10 | > 10 | > 10 | > 10 |  | 
COc1cc(COC(=O)N2CCCCC2C(=O)O)c([N+](=O)[O-])cc1OC (stereo not drawn) |  | > 100 | > 100 | > 100 | > 100 |  | 
CN(C)C1(C(=O)O)CC1 | > 100 | > 100 | > 100 | > 100 | > 100 |  | 
Oc1ccc(-c2c3ccccc3c(-c3ccc(OCCBr)cc3)c3ccccc23)cc1 | 38.9 | > 100 | 50.6 | 51 | 59.9 |  | 
CSC(=NC1CC(n2cc(C)c(=O)[nH]c2=O)OC1CO)NC#N (stereo not drawn) | > 100 | > 100 | > 100 | > 100 | > 100 |  | 
CCCCOP(=O)(OCCCC)/C(C#N)=C/c1ccc(C)o1 | > 100 | > 100 | > 100 | > 100 | > 100 |  | 
COc1ccc(-c2nc(N(C)C)c3ccccc3n2)cc1 | 28.8 | 62.2 | 51.5 | 33.7 | 39.8 |  | 
CCOC(=O)N1CC2(C(=O)OC)C=CC1C(C(=O)OC)C2 (stereo not drawn) | > 100 | > 100 | > 100 | > 100 | > 100 |  | 
O=C1C=C(c2c(-c3ccccc3)[nH]c3ccccc23)C(=O)N1c1ccccc1 | 24 | 33.3 | 1.06 | 68.7 | 22.5 |  | 
O=C1NCC2(CCN(Cc3ccccc3)CC2)N1 | > 100 | > 100 | > 100 | > 100 | > 100 |  | 

Structure (SMILES) | TGI [1] [µM] | TGI [2] [µM] | TGI [3] [µM] | TGI [4] [µM] | TGI [5] [µM] | GI50 [3] [µM] | GI50 [5] [µM]
OC(c1ccc(F)cc1)C(F)(F)c1nc(-c2ccccc2)no1 (stereo not drawn) | > 100 | 35.6 |  | > 100 | 39.8 |  | 
Cc1nc2c(O)cccc2c(=O)[nH]1 | > 1000 | > 1000 | > 1000 | > 1000 | > 1000 |  | 
C/C(=N\Nc1nc2ccccc2[nH]1)c1ccncn1 | > 42.5 | > 100 | 1.3 | > 63 | 10.2 |  | 
C[C@@H]1CCC2[C@@H](C)[C@H](O[C@H]3O[C@@H]4O[C@@]5(C)CCC6[C@H](C)CCC([C@H]3C)[C@]64OO5)O[C@@H]3O[C@@]4(C)CCC1[C@@]23OO4 (stereo partly drawn) | 1.58 | 10.3 | 25.5 | 27.3 | 15.6 |  | 
Nc1ncnc2c1ncn2[C@@H]1C[C@H]1CO | > 100 | > 100 | > 100 |  | > 100 |  | 
Cc1ccc(-c2c(C#N)c(-c3ccc([N+](=O)[O-])cc3)c(C#N)c(=O)n2NS(=O)(=O)c2ccc(C)cc2)cc1 | > 100 | > 100 | > 100 | > 100 | > 100 |  | 
COc1ccc(/C=C/C(=O)c2nc3ccccc3[nH]2)cc1 | 28.2 | > 71.7 | > 88.1 | 65.6 | 73.9 |  | 
Cc1[nH]c2ncn3ncnc3c2c1Cc1ccccc1 |  | > 100 | > 100 | > 100 | > 100 |  | 
COc1ccc(C2=NN(C(=O)c3ccccc3)C(O)(c3cc(F)c(Cl)cc3Cl)C2)cc1OC (stereo not drawn) | > 100 | > 100 | 43 | > 100 | > 100 |  | 
NCCCCC(N)C(=O)N1CCN(c2nc(N3CCCC3)c3nc(Cl)c(NCc4ccccc4)nc3n2)CC1 (stereo not drawn) | 35.9 | 33.9 | 29.3 | 40.5 | 34.3 |  | 
COc1ccc(N2C(=O)CSC2c2cc3cc(Br)ccc3nc2Cl)cc1 (stereo not drawn) | > 50 | > 50 | > 50 | > 50 | > 50 |  | 
COc1ccc(C(=O)/C=C2\c3ccccc3C(=O)N2C)cc1 | > 100 | > 100 | > 100 | > 100 | > 100 |  | 
CC1=NN(c2nc(N)nc(C(C)Sc3cc(Cl)c(C)cc3S(N)(=O)=O)n2)C(C)(C)C1 (stereo not drawn) | > 10 | > 10 | > 10 | > 10 | > 10 |  | 
COc1ccc(-c2nc(N)c(C#N)c3c2CCSc2ccc(C)cc2-3)cc1OC | > 50.2 | > 100 | > 100 | > 81.8 | 44.4 |  | 
COC(=O)C(/C(=N/N)C(=O)Nc1ccc(C)c(C)c1)c1nc2ccc(Cl)cc2[nH]c1=O (stereo not drawn) | > 100 | > 100 | > 100 | > 100 | > 100 |  | 
COc1cc(CNc2nc3ccccc3nc2-c2cccs2)cc(OC)c1OC | 42.6 | > 100 | > 100 | > 100 | 37.8 |  | 
C=CC1(c2ccc3ccccc3c2)OCC(CC)(CC)CO1 | 34.5 | 38.5 | 84.4 | > 100 | 44.5 |  | 
